Reference: publication PMC8621857, “Structural Insights into the Azole Resistance of the Candida albicans Darlington Strain Using Saccharomyces cerevisiae Lanosterol 14α-Demethylase as a Surrogate” (Journal of Fungi, 2021)
Where two headings read alike, the source gives them in different places.

Assays:
[1] = tested on: S. cerevisiae strain AD2Δ (native wild-type ScLDM); assay: Broth microdilution drug susceptibility assay (MIC80), host strain AD2Δ; format: cell-based; conditions: Saccharomyces cerevisiae; strain AD2Δ; 48 h, 30 °C, pH 6.8; mean (± SEM), n = 3; read-out: MIC80
Description: Yeast strains used in this study (Supplementary Table S1) were prepared using the AD2Δ strain of S. cerevisiae as a host, using an established protocol. AD2Δ is hypersensitive to xenobiotics due to the deletion of seven major ABC transporters, including those responsible for the efflux of azole drugs. It is also deleted of the PDR3 transcriptional regulator, but contains the gain-of-function Pdr1-3 transcriptional regulator mutation that leads to constitutive overexpression from the PDR5 locus.
Azole susceptibility was measured as the mean drug concentration required to inhibit 80% of yeast growth (MIC80) compared to a non-drug control, using a standard broth microdilution assay. Serial dilutions of short- (FLC and VCZ), medium- (VT-1161), and long-tailed (ITC and PCZ) azole drugs, and the control drugs micafungin (MCF) and amphotericin B (AMB), were prepared in a 96-well microtiter plate in complete synthetic media lacking uracil, buffered to pH 6.8 [34]. Control and test cells were seeded at an optical density of 600 nm (OD600) of 0.005 (~1.5 × 10^4 colony forming units). After incubation for 48 h at 30 °C with constant agitation (200 rpm), the OD600 nm of each well was measured using a Synergy 2 multi-mode plate reader (BioTek Instruments, Winooski, VT, USA). The experiment was repeated three times (a total of nine measurements for the response of each strain to each drug). GraphPad Prism 5.0 software was used for statistical analysis, using a one-way analysis of variance with a Bonferroni post-hoc test. The statistical significance of comparisons was accepted when p < 0.05.

[2] = molecular target: T1, wild-type (AD3Δ) ScLDM6×His (Saccharomyces cerevisiae, UniProt P10614); assay: Type II azole binding to affinity purified wild-type ScLDM6×His; conditions: for ΔAmax: type II binding
T1 construct: recombinant full-length C-terminal hexahistidine-tagged wild-type Saccharomyces cerevisiae LDM (ScLDM6×His); 6×His (hexahistidine) (C); made in house; host or cells: Saccharomyces cerevisiae strain AD3Δ ScErg11 (overexpression from the PDR5 locus, native ERG11 disrupted)
Description: (§1) Protein purification was carried out using established methods. In brief, a 12 L culture for each control and test strain was grown overnight in 1 L volumes of YPD medium (1% [w/v] yeast extract [BD Difco], 2% [w/v] peptone [BD Difco], and 2% [w/v] D-glucose) in baffled 3 L flasks at 30 °C, with constant agitation (140 rpm). Cells harvested by centrifugation were broken by bead-beating and crude membrane fractions obtained by differential centrifugation, as previously described. The protein concentration of the crude membranes was estimated using the Lowry assay, with bovine serum albumin (Thermo Fisher) used as the protein standard. The crude membranes (1 g at 2.5 mg/mL) were detergent-solubilized using 10× critical micelle concentration (CMC) n-decyl-β-D-maltoside (DM) (Anatrace, Maumee, OH, USA) in buffer containing 10% (w/v) glycerol, 250 mM NaCl, 20 mM Tris pH 7.5, 0.5 mM phenylmethanesulfonyl fluoride (PMSF), and 1 EDTA-free protease inhibitor pill (Roche, Basel, Switzerland) per 300 mL. When the protein was to be used to assess in vitro binding affinity for the test azoles, detergent solubilized ScLDM6×His recovered after centrifugation was affinity purified using a nickel-nitrilotriacetic acid (Ni-NTA)-agarose matrix (Qiagen). The bound ScLDM6×His was eluted from the matrix using an affinity purification buffer containing 50 mM L-histidine. The L-histidine was removed by washing the enzyme through centrifugal filtration, using a 50 kDa molecular-weight cut-off Amicon Ultra-4 filter (Sigma, Auckland, New Zealand).
(§2) The concentration of functional ScLDM6×His purified by the nickel affinity method was quantitated using the standard carbon monoxide (CO) binding method. Type II drug binding assays that measure absorbance changes due to ligand interactions with ScLDM6×His were performed for VCZ and ITC, using an established protocol. The peak429nm-trough410nm difference spectra plotted against azole concentration were used to generate drug binding curves. All calculations were performed using GraphPad Prism 5 Software.

[3] = molecular target: T2, ScLDM6×His I471T (Saccharomyces cerevisiae, UniProt P10614, I471T); assay: Type II azole binding to affinity purified ScLDM6×His I471T; conditions: for ΔAmax: type II binding
T2 construct: structurally aligned mutations in recombinant hexahistidine-tagged full-length Saccharomyces cerevisiae LDM6×His (ScLDM6×His); 6×His (hexahistidine) (C); made in house; host or cells: Saccharomyces cerevisiae strain AD3Δ ScErg11 I471T (overexpression from the PDR5 locus, native ERG11 disrupted)
Description: as §1, §2

[4] = wild-type (AD3Δ) ScLDM6×His, 2 µM enzyme, (± SEM), μM, read-out: [Azole]0.5
[5] = wild-type (AD3Δ) ScLDM6×His, (± SEM)
[6] = wild-type ScLDM6×His, supplement, 'in the 0.5 μM range'
[7] = wild-type enzyme, in the presence of 2 µM enzyme, read-out: IC50 from type II binding curves
[8] = I471T mutant ScLDM6×His, supplement, 'in the 0.5 μM range'
[9] = I471T mutant enzyme, in the presence of 2 µM enzyme, read-out: IC50 from type II binding curves
[10] = ScLDM6×His I471T, 2 µM enzyme, (± SEM), μM, read-out: [Azole]0.5

T1 sequence (P10614 whole entry, stated change not applied): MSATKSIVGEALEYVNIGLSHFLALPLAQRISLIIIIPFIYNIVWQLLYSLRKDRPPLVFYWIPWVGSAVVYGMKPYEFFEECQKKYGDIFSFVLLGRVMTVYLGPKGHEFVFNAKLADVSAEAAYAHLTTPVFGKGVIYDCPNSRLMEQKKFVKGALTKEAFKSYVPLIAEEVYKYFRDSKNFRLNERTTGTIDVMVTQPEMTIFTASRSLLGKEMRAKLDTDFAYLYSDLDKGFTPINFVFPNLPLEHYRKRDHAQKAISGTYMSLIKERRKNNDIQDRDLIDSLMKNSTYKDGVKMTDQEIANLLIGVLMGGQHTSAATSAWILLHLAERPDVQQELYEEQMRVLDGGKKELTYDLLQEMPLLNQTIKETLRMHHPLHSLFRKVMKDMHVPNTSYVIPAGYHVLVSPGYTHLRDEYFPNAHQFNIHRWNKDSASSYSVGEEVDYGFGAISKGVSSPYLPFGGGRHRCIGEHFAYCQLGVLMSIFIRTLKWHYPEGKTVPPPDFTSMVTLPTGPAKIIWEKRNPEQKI
T2 sequence (P10614 whole entry I471T): as the sequence (P10614 whole entry, stated change not applied) above, with I471T counted along it

SMILES | MIC80 [1] | IC50 [2, 4] | ΔAmax [2, 5] | Hill number [2, 5] | Kd [2, 5] | Kd [2, 6] | IC50 [2, 7] | Kd [3, 8] | IC50 [3, 9] | IC50 [3, 10] | ΔAmax ([3]; ScLDM6×His I471T, (± SEM)) | Hill number ([3]; ScLDM6×His I471T, (± SEM)) | Kd ([3]; ScLDM6×His I471T, (± SEM))
CCC(C)n1ncn(-c2ccc(N3CCN(c4ccc(OCC5COC(Cn6cncn6)(c6ccc(Cl)cc6Cl)O5)cc4)CC3)cc2)c1=O (centres unmarked) [ITC, itraconazole] | 0.0735 µM | 0.6 µM | 0.08 (0.006) | 1.61 (0.22) | 0.43 µM | ~0.5 µM | 0.6 to 0.8 µM | ~0.5 µM | 0.6 to 0.8 µM | 0.79 µM | 0.06 (0.001) | 1.55 (0.19) | 0.7 µM
C[C@@H](c1ncncc1F)[C@](O)(Cn1cncn1)c1ccc(F)cc1F [VCZ, voriconazole] | 0.0375 µM | 0.78 µM | 0.10 (0.004) | 1.85 (0.23) | 0.62 µM | ~0.5 µM | 0.6 to 0.8 µM | ~0.5 µM | 0.6 to 0.8 µM | 0.75 µM | 0.07 (0.003) | 1.88 (0.23) | 0.58 µM
